Assay results from paper PMC6005348, “Betahistine Treatment in a Cat Model of Vestibular Pathology: Pharmacokinetic and Pharmacodynamic Approaches” (Frontiers in Neurology, 2018).

Tested on: unilateral vestibular neurectomized cats (UVN)
Test: Support surface measurement: recovery of static posture after unilateral vestibular neurectomy
Format: in vivo, cat
Settings: for Normalized posture area: DAY 2 of treatment, pre-operative value = 1, control 4.6
Experimental: We have previously described the surgery for vestibular neurectomy ([35]). “Adult male cats weighing 4–5 kg were anesthetized with ketamine (20 mg/kg, i.m.; Rhône Poulenc, Mérieux, France), received an analgesic (Tolfenamic acid: tolfedine, 0.5 ml, i.m.; Vetoquinol, Lure, France) and were kept at physiological body temperature using a blanket. The vestibular nerve was sectioned on the left-side at the post-ganglion level in order to leave the auditory division intact after mastoidectomy, partial destruction of the bony labyrinth, and surgical exposure of the internal auditory canal. Animals were maintained under antibiotics for 7 days and analgesics for 3 days.”
One […] group (N = 4: cats 10–13) was submitted to a UVN and received post-operatively a vehicle (placebo group). Two groups of cats were treated with betahistine at the lower dose of 0.2 mg/kg/day (N = 3: cats 14–16) or at the higher dose of 2 mg/kg/day (N = 3: cats 17–19). Another group of cats received the combination of both betahistine at 0.2 mg/kg/day plus selegiline at the dose of 1 mg/kg/day (N = 3: cats 20–22).
Placebo treatment was pursued until full recovery of posture control in the control group, that is, 40 days on average. The same post-lesion period was investigated in the three experimental groups receiving betahistine or betahistine + selegiline.
We have described in previous papers how posture deficits and recovery were evaluated ([21]). The surface delimited by the four legs of the cat was measured while standing erect at rest, without walking. “Support surface is considered a good estimate of postural control since it reflects the cat's behavioral adaptation to compensate the static vestibulospinal deficits induced by the vestibular lesion. […] To quantify the support surface, cats were placed in a device with a graduated transparent floor that allowed them to be photographed from underneath. Five repeated measurements were done for each cat tested at each post-operative time, and an average was calculated for each experimental session. The support surface was measured as the surface delimited by the four legs by an image analysis system (Canvas, 9^TM, Deneba software, Miami, FL). Post-lesion data were compared to pre-lesion values by using individual references, each animal being its own control. Recovery of static posture function was assessed by the changes and development of the support surface over time. The recovery was considered as total when the support surface returned to the pre-operative value (unity, i.e., 1).”
Statistical analysis consisted of an ANOVA to test for changes at the different post-lesion days (2, 4, 6, 10, 15, 20, 25, 30, 35, 40 days) for the support surface in each group of cats. Repeated-measure analysis of variance was used to test (1) the effects of betahistine treatment (controls vs. treated cats), (2) the effects of the betahistine dose (0.2 vs. 2 mg/kg), and (3) the effects of additional selegiline on the lowest betahistine dose (0.2 mg/kg betahistine + 1 mg/kg selegiline).
ANOVA was followed by post-hoc analysis (Scheffe-test and multicomparison Fisher's test: Statview II software). Results were considered significant at P < 0.05. To distinguish between chronic and early effects of betahistine treatment a Two-way-ANOVA with day and treatment as discriminating factors was performed (GraphPad Prism 5.0). The Cohen's d-value (two means differences/largest standard deviation) was evaluated to test the size effect.

`CNCCc1ccccn1` [Betahistine, betahistine] was tested, and the “Post-lesion day (D+) of complete recovery of posture” value (2 mg/kg betahistine group, earlier than controls) was 10, the “Cohen's d, control versus treatment (support surface)” value (shortened to “Cohen's d, control versus treatment”) (Betahistine (0.2 mg), D+2) was 0.657 and the “Cohen's d, control versus treatment” value (Betahistine (0.2 mg), D+4) was 3.289. For the same compound, the “Cohen's d, control versus treatment” value (Betahistine (0.2 mg), D+6) was 2.510, the “Cohen's d, control versus treatment” value (Betahistine (0.2 mg), D+10) was 2.708 and the “Cohen's d, control versus treatment” value (Betahistine (0.2 mg), D+15) was 4.224. For the same compound, the “Cohen's d, control versus treatment” value (Betahistine (0.2 mg), D+20) was 2.064, the “Cohen's d, control versus treatment” value (Betahistine (0.2 mg), D+25) was 2.870 and the “Cohen's d, control versus treatment” value (Betahistine (0.2 mg), D+30) was 5.146. For the same compound, the “Cohen's d, control versus treatment” value (Betahistine (0.2 mg), D+40) was -1.447, the “Cohen's d, control versus treatment” value (Betahistine (2 mg), D+2) was 2.662 and the “Cohen's d, control versus treatment” value (Betahistine (2 mg), D+4) was 3.616. For the same compound, the “Cohen's d, control versus treatment” value (Betahistine (2 mg), D+6) was 2.799, the “Cohen's d, control versus treatment” value (Betahistine (2 mg), D+10) was 5.398 and the “Cohen's d, control versus treatment” value (Betahistine (2 mg), D+15) was 7.246. The “Cohen's d, control versus treatment” value (Betahistine (2 mg), D+20) was 13.857, the “Cohen's d, control versus treatment” value (Betahistine (2 mg), D+25) was 8.478 and the “Cohen's d, control versus treatment” value (Betahistine (2 mg), D+30) was 6.512. For the same compound, the “Cohen's d, control versus treatment” value (Betahistine (2 mg), D+40) was 3.320, the Normalized posture area (BH 0.2 mg/kg) was 3.98 and the Normalized posture area (BH 2.0 mg/kg) was 2.4. For the same compound, the “Difference from controls with respect to complete time of recovery (ANOVA)” value (betahistine 0.2 mg/kg, P < 0.15) was “did not significantly differed”, the “Support surface versus untreated cats, Bonferroni post-test” value (betahistine 0.2 mg/kg, p < 0.01, first week only) was “significant differences at the particular D+4 and D+6 time delays” and the “Complete time of recovery of posture” value (betahistine 0.2 mg/kg, same as controls) was “around 6 weeks”. The “Difference from controls with respect to complete time of recovery (ANOVA)” value (betahistine 2 mg/kg, P < 0.026) was “differed significantly”.
